Measured values as given in patent US20260076948A1, “TREATMENT OF DIABETIC RETINOPATHY USING ENDOTHELIN RECEPTOR ANTAGONISTS” (Perfuse Therapeutics, Inc., priority 2019, published 2026).
“Also recorded” adds a separate entry of the source.

Assays:
ETA = target: T1, ETA (Homo sapiens, UniProt P25101); assay: Functional potency for ETA receptor; type: biochemical
T1 sequence (P25101 21-427): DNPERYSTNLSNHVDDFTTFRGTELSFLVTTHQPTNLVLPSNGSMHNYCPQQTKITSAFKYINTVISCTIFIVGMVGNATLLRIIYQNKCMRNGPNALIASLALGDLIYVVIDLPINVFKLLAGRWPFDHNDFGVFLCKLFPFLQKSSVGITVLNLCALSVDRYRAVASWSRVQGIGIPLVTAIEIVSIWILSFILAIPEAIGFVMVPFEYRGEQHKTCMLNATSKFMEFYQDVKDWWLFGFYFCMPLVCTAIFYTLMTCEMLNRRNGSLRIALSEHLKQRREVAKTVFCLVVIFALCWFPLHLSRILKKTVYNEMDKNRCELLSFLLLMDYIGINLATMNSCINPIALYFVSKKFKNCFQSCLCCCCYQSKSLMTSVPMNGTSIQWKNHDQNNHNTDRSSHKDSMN
Description: (§1) In the above table, the physicochemical data, e.g., solubility, were obtained following standard protocols known in the field (see, e.g., Reis et al., Mini Rev Med Chem., 2010, 10(11):1071-6; Avdeef et al., Expert Opin Drug Metab Toxicol., 2005, 1(2):325-42; Bharate et al., Comb Chem High Throughput Screen., 2016, 19(6):461-9; and Jain et al., J Pharm Biomed Anal., 2013, 86:11-35.); and the biochemical data, i.e., potency for ETA/ETB, were obtained following the protocols known in the field (see, e.g., Kirkby et al., Br J Pharmacol., 2008, 153(6):1105-19; and Maguire et al., Br J Pharmacol., 2014, 171(24):5555-72.).

Stability in solid state = type: physicochemical; conditions: 2 h@125° C.
Description: as §1

Permeability (PAMPA) = type: in vitro ADME; conditions: PAMPA log Pe and PSA
Description: as §1

ETA/ETB receptor = conditions: background statement; cited from earlier work
[1] = tested on: Morrison's rat model of glaucoma (elevated IOP); assay: Morrison's rat model of glaucoma (RGC counts, PERG); type: in vivo, Brown Norway rats; conditions: topical eye drops 100 μg per dose, five days a week, four weeks
Description: Adult male and female retired breeder Brown Norway rats (approximate age groups of 8 to 11 months) were obtained from Envigo (Indianapolis, IN). Baseline IOP measurements and pattern electroretinogram (PERG) amplitudes were collected prior to the surgery for elevation of IOP (to ensure that the IOP and PERG amplitudes were in the expected range of values). IOP was elevated in one eye (left eye) of the rats, while the corresponding right eyes served as contralateral controls. The Morrison method to elevate IOP in rats was carried out by injection of 50 μL. of hypertonic saline through the episcleral veins to sclerose the trabecular meshwork. IOP was measured twice a week throughout the entire duration of the experiment. […] After detecting an elevation of IOP for two consecutive days, topical administration of eye drops (20 μL (100 μg) per dose of the tested compounds in the IOP elevated eye) was commenced and carried out for five days a week for a total of four weeks. In the 4th week of treatment, PERG analysis was carried out and rats were sacrificed by an overdose of pentobarbital (Fatal-Plus). Aqueous humor was collected from the rat eyes, frozen and shipped for analysis. Retinal flat mounts were prepared, immunostained with the RGC marker, Brn3a antibody and surviving RGCs were counted in two eccentricities (central and peripheral).
For this study, the Morrison's model was used to induce ocular hypertension in adult male retired breeder Brown Norway rats as previously described by Morrison et al., (Morrison J C, Moore C G, Deppmeier L M, Gold B G, Meshul C K, Johnson E C. A rat model of chronic pressure-induced optic nerve damage. Exp Eye Res. 1997; 64(1):85-96).
The immunostained retinal flat mounts were obtained to measure the retinal ganglion cell (RGC) counts. To obtain immunostained retinal flat mounts, the animals were euthanized after the treatments and then their eyes were enucleated. The eye cups were fixed overnight at 4° C. in 4% paraformaldehyde (PFA) and retinal flat mounts were prepared for collecting images. The retinal ganglion cell (RGC) counting was conducted using the images of immunostained retinal flat mounts. The images were uploaded to ImageJ, a photo editor designed for biology research (Rasband, 1997-2018) and the labeled retinal ganglion cells were counted manually in two eccentricities (central and peripheral).
Pattern ERG (PERG) was used to assess the RGC function. […] Briefly, PERG signals were acquired from a DTL-plus electrode placed on the lower part of the corneal surface and the PERG waves were analyzed using the EMWIN software (LKC). The difference between the amplitude of the major positive (P1) and negative (N2) waves were calculated to decipher the PERG amplitude.

[2] = Pharmacokinetics after topical or oral administration in the rat; type: in vivo, Brown Norway rats
Procedure: After the administrations, the animals (N=2) were euthanized at different time points (e.g. 4 and 8 hours) and tissues were collected for analysis. List of tissues collected include plasma, retina/retinal pigment epithelium (RPE)/choroid, vitreous humor and aqueous humor.

[3] = Solubility (pH 2, pH 7, ethyl acetate); type: physicochemical
Description: as §1

- Functional potency for ETA and ETB receptors, rating in words (ETA): High potency
- Specificity ETA versus ETB, rating in words (ETA; ETA vs ETB): Low specificity
- Stability in Solid State, in words (Stability in solid state): unstable
- Stability in Solid State, remaining (Stability in solid state): about 87% remaining/
- Permeability, rating in words (Permeability (PAMPA)): Mid-High
- Detection in the retina/RPE/choroid after oral administration ([2]; oral, 50 mg/kg as printed): detectable
- Solubility in Ethyl Acetate, rating in words ([3]; ethyl acetate): Good
- Solubility at pH 2, comparison in words ([3]; pH 2): superior to that of Edonentan
Compound: CCCCCS(=O)(=O)N(CCC)CCN1C[C@H](c2ccc3c(c2)OCO3)[C@@H](C(=O)O)[C@@H]1c1ccc(OC)c(F)c1 [A-182086, (2R,3R,4S)-4-(2H-1,3-benzodioxol-5-yl)-2-(3-fluoro-4-methoxyphenyl)-1-[2-(N-propylpentane-1-sulfonamido)ethyl]pyrrolidine-3-carboxylic acid]
- Endothelin receptor antagonism, description in words (ETA/ETB receptor): potent dual ETA/ETB receptor antagonist
- Pattern electroretinogram (PERG) changes, RGC function [1]: maintained RGC function
- Retinal ganglion cell (RGC) counts in the peripheral retina [1]: prevented RGC loss
- Ocular exposure after topical administration (retina/RPE/choroid, aqueous humor, vitreous humor) ([2]; eye drop 100 μg, 4 and 8 hours): detected; also recorded: permeate through cornea/sclera and achieve retina exposure
